Laboratory results: patent US20240209028A1, “CNP COMPOUNDS” (priority 2022, published 2024)
Starred links: 1 amine or outer side, 2 acyl side, 3 side chain; linkers in the order of their positions; H or OH if unused. Positions of bridges follow the written chain, without caps; N, C: chain ends. Residues, ends and D or L forms follow the SMILES beside them. *: point of attachment. C18 diacid = O=C(O)CCCCCCCCCCCCCCCCC(=O)*; γGlu = O=C(O)[C@H](CCC(=O)[*:2])N[*:1]; AEEA = NCCOCCOCC(=O)O

Biological target: T1, human natriuretic peptide receptor 2 (hNPR2) (Homo sapiens, UniProt P20594)
T1 construct: expressed in transfected cells; host or cells: HEK293 (ATCC CRL-1573), clone 35, co-transfected with pGloSensor-42F
T1 sequence (P20594 23-1047): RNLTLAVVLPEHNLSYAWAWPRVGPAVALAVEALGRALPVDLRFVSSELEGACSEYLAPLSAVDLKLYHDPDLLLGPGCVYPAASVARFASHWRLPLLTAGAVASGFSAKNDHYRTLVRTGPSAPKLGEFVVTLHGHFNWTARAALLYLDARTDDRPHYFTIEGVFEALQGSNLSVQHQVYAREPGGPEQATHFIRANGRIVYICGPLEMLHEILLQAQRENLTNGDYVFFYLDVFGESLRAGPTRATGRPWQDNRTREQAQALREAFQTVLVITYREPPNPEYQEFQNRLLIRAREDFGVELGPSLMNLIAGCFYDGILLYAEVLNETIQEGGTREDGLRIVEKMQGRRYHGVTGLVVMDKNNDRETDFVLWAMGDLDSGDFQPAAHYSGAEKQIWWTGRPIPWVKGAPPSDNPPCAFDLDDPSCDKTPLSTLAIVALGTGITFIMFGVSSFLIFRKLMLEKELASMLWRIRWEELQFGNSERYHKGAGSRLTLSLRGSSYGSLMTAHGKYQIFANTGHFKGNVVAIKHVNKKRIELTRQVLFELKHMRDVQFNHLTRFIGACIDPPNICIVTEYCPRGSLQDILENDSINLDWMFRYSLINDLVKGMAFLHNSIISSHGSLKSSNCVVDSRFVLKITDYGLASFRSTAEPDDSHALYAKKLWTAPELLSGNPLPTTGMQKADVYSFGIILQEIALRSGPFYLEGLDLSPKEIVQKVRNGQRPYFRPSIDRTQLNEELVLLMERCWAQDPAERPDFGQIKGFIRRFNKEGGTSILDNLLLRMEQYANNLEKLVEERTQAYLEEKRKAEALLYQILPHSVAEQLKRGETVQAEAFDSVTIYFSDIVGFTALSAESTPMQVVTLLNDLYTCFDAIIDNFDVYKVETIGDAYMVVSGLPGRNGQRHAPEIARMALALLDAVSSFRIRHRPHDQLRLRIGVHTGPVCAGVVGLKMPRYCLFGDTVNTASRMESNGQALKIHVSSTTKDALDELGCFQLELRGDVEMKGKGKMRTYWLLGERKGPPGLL
Test: In vitro hNPR2 activity assay (cGMP GloSensor reporter, HEK293)
Assay type: cell-based
Settings: for EC50: 0% HSA, HEK293-hNPR2/GloSensor cells; for hNPR2 0% HSA. [EC50% rel CNP]: potency relative to CNP22 (0065)
Summary of the method: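 Potency is the EC50 from a four-parameter logistic fit, also expressed relative to the in-plate CNP22 control (×100), with at least two replicates. Compounds (ten concentrations, […], HSA-free diluent with 1% OVA, 0.01% Tween20) were incubated 30 min at 37 °C on HEK293 cells co-expressing hNPR2 and a GloSensor cGMP luciferase. Luminescence detected with Bright-Glo.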

SMILES	EC50	hNPR2 0% HSA. [EC50% rel CNP]
CC[C@H](C)[C@@H]1NC(=O)[C@H](CCCNC(=N)N)NC(=O)[C@H](CC(=O)O)NC(=O)[C@H](CC(C)C)NC(=O)[C@H](CCCCN)NC(=O)[C@H](CC(C)C)NC(=O)CNC(=O)[C@H](Cc2ccccc2)NC(=O)[C@@H](NC(=O)CNC(=O)[C@H](CCC(N)=O)NC(=O)[C@H](CO)NC(=O)[C@H](CC(C)C)NC(=O)CNC(=O)[C@H](Cc2c[nH]cn2)NC(=O)[C@H](Cc2c[nH]cn2)NC(=O)[C@H](CCC(N)=O)NC(=O)[C@H](C)NC(=O)CNC(=O)[C@H](CCCCN)NC(=O)[C@H](Cc2ccc(O)cc2)NC(=O)COCCOCCNC(=O)COCCOCCNC(=O)CC[C@H](NC(=O)CCCCCCCCCCCCCCCCC(=O)O)C(=O)O)CSSC[C@@H](C(=O)O)NC(=O)CNC(=O)[C@H](CC(C)C)NC(=O)CNC(=O)[C@H](CO)NC(=O)[C@H](CC(C)C)NC(=O)[C@H](CO)NC(=O)CNC1=O [compound 1340] ({C18 diacid-γGlu-AEEA-AEEA}-YKGAQHHGLSQGCFGLKLDRIGSLSGLGC-OH; disulfide 13-29)	0.18 nM	44.4%
CC[C@H](C)[C@@H]1NC(=O)[C@H](CCCNC(=N)N)NC(=O)[C@H](CC(=O)O)NC(=O)[C@H](CC(C)C)NC(=O)[C@@H]2CCCN2C(=O)[C@H](CC(C)C)NC(=O)CNC(=O)[C@H](Cc2ccccc2)NC(=O)[C@@H](NC(=O)CNC(=O)[C@H](CCC(N)=O)NC(=O)[C@H](CO)NC(=O)[C@H](CC(C)C)NC(=O)CNC(=O)[C@H](Cc2c[nH]cn2)NC(=O)[C@H](Cc2c[nH]cn2)NC(=O)[C@H](CCC(N)=O)NC(=O)[C@H](C)NC(=O)CNC(=O)[C@H](CCCCN)NC(=O)[C@H](Cc2ccc(O)cc2)NC(=O)COCCOCCNC(=O)COCCOCCNC(=O)CC[C@H](NC(=O)CCCCCCCCCCCCCCCCC(=O)O)C(=O)O)CSSC[C@@H](C(=O)O)NC(=O)CNC(=O)[C@H](CC(C)C)NC(=O)CNC(=O)[C@H](CO)NC(=O)[C@H](CC(C)C)NC(=O)[C@H](CO)NC(=O)CNC1=O [compound 1341] ({C18 diacid-γGlu-AEEA-AEEA}-YKGAQHHGLSQGCFGLPLDRIGSLSGLGC-OH; disulfide 13-29; C-terminus assumed)	–	16.7%
CC[C@H](C)[C@@H]1NC(=O)[C@H](CCCNC(=N)N)NC(=O)[C@H](CC(=O)O)NC(=O)[C@H](CC(C)C)NC(=O)[C@H](CCCCN)NC(=O)[C@H](CC(C)C)NC(=O)CNC(=O)[C@H](Cc2ccccc2)NC(=O)[C@@H](NC(=O)CNC(=O)[C@H](CCCCN)NC(=O)[C@H](CO)NC(=O)[C@H](CC(C)C)NC(=O)CNC(=O)[C@H](Cc2c[nH]cn2)NC(=O)[C@H](Cc2c[nH]cn2)NC(=O)[C@H](CCC(N)=O)NC(=O)[C@H](C)NC(=O)CNC(=O)[C@H](Cc2c[nH]cn2)NC(=O)[C@H](Cc2ccc(O)cc2)NC(=O)COCCOCCNC(=O)COCCOCCNC(=O)CC[C@H](NC(=O)CCCCCCCCCCCCCCCCC(=O)O)C(=O)O)CSSC[C@@H](C(=O)O)NC(=O)CNC(=O)[C@H](CC(C)C)NC(=O)CNC(=O)[C@H](CO)NC(=O)[C@H](CC(C)C)NC(=O)[C@H](CO)NC(=O)CNC1=O [compound 1345] ({C18 diacid-γGlu-AEEA-AEEA}-YHGAQHHGLSKGCFGLKLDRIGSLSGLGC-OH; disulfide 13-29)	0.38 nM	21.1%
CC[C@H](C)[C@@H]1NC(=O)[C@H](CCCNC(=N)N)NC(=O)[C@H](CC(=O)O)NC(=O)[C@H](CC(C)C)NC(=O)[C@@H]2CCCN2C(=O)[C@H](CC(C)C)NC(=O)CNC(=O)[C@H](Cc2ccccc2)NC(=O)[C@@H](NC(=O)CNC(=O)[C@H](CCCCN)NC(=O)[C@H](CO)NC(=O)[C@H](CC(C)C)NC(=O)CNC(=O)[C@H](Cc2c[nH]cn2)NC(=O)[C@H](Cc2c[nH]cn2)NC(=O)[C@H](CCC(N)=O)NC(=O)[C@H](C)NC(=O)CNC(=O)[C@H](Cc2c[nH]cn2)NC(=O)[C@H](Cc2ccc(O)cc2)NC(=O)COCCOCCNC(=O)COCCOCCNC(=O)CC[C@H](NC(=O)CCCCCCCCCCCCCCCCC(=O)O)C(=O)O)CSSC[C@@H](C(=O)O)NC(=O)CNC(=O)[C@H](CC(C)C)NC(=O)CNC(=O)[C@H](CO)NC(=O)[C@H](CC(C)C)NC(=O)[C@H](CO)NC(=O)CNC1=O [compound 1346] ({C18 diacid-γGlu-AEEA-AEEA}-YHGAQHHGLSKGCFGLPLDRIGSLSGLGC-OH; disulfide 13-29; C-terminus assumed)	–	17.0%
CC[C@H](C)[C@@H]1NC(=O)[C@H](CCCNC(=N)N)NC(=O)[C@H](CC(=O)O)NC(=O)[C@H](CC(C)C)NC(=O)[C@@H]2CCCN2C(=O)[C@H](CC(C)C)NC(=O)CNC(=O)[C@H](Cc2ccccc2)NC(=O)[C@@H](NC(=O)CNC(=O)[C@H](Cc2c[nH]cn2)NC(=O)[C@H](CO)NC(=O)[C@H](CC(C)C)NC(=O)CNC(=O)[C@H](CCCCN)NC(=O)[C@H](CCCCN)NC(=O)[C@H](CCC(N)=O)NC(=O)[C@H](C)NC(=O)CNC(=O)COCCOCCNC(=O)COCCOCCNC(=O)CC[C@H](NC(=O)CCCCCCCCCCCCCCCCC(=O)O)C(=O)O)CSSC[C@@H](C(=O)O)NC(=O)CNC(=O)[C@H](CC(C)C)NC(=O)CNC(=O)[C@H](CO)NC(=O)[C@H](CC(C)C)NC(=O)[C@H](CO)NC(=O)CNC1=O [compound 1347] ({C18 diacid-γGlu-AEEA-AEEA}-GAQKKGLSHGCFGLPLDRIGSLSGLGC-OH; disulfide 11-27; C-terminus assumed)	–	15.4%
CC[C@H](C)[C@@H]1NC(=O)[C@H](CCCNC(=N)N)NC(=O)[C@H](CC(=O)O)NC(=O)[C@H](CC(C)C)NC(=O)[C@@H]2CCCN2C(=O)[C@H](CC(C)C)NC(=O)CNC(=O)[C@H](Cc2ccccc2)NC(=O)[C@@H](NC(=O)CNC(=O)[C@H](CO)NC(=O)[C@H](Cc2c[nH]cn2)NC(=O)[C@H](CC(C)C)NC(=O)CNC(=O)[C@H](CCCCN)NC(=O)[C@H](CCCCN)NC(=O)[C@H](CCC(N)=O)NC(=O)[C@H](C)NC(=O)CNC(=O)COCCOCCNC(=O)COCCOCCNC(=O)CC[C@H](NC(=O)CCCCCCCCCCCCCCCCC(=O)O)C(=O)O)CSSC[C@@H](C(=O)O)NC(=O)CNC(=O)[C@H](CC(C)C)NC(=O)CNC(=O)[C@H](CO)NC(=O)[C@H](CC(C)C)NC(=O)[C@H](CO)NC(=O)CNC1=O [compound 1348] ({C18 diacid-γGlu-AEEA-AEEA}-GAQKKGLHSGCFGLPLDRIGSLSGLGC-OH; disulfide 11-27)	–	31.4%
CC[C@H](C)[C@@H]1NC(=O)[C@H](CCCNC(=N)N)NC(=O)[C@H](CC(=O)O)NC(=O)[C@H](CC(C)C)NC(=O)[C@@H]2CCCN2C(=O)[C@H](CC(C)C)NC(=O)CNC(=O)[C@H](Cc2ccccc2)NC(=O)[C@@H](NC(=O)CNC(=O)[C@H](CO)NC(=O)[C@H](CO)NC(=O)[C@H](CC(C)C)NC(=O)CNC(=O)[C@@H](NC(=O)[C@H](Cc2c[nH]cn2)NC(=O)[C@H](CCC(N)=O)NC(=O)[C@H](C)NC(=O)CNC(=O)[C@H](Cc2c[nH]cn2)NC(=O)[C@H](Cc2ccc(O)cc2)NC(=O)[C@H](CCCCN)NC(=O)[C@H](CCCNC(=N)N)NC(=O)[C@H](C)NC(=O)COCCOCCNC(=O)COCCOCCNC(=O)CC[C@H](NC(=O)CCCCCCCCCCCCCCCCC(=O)O)C(=O)O)[C@@H](C)O)CSSC[C@@H](C(=O)O)NC(=O)CNC(=O)[C@H](CC(C)C)NC(=O)CNC(=O)[C@H](CO)NC(=O)[C@H](CC(C)C)NC(=O)[C@H](CO)NC(=O)CNC1=O [compound 1350] ({C18 diacid-γGlu-AEEA-AEEA}-ARKYHGAQHTGLSSGCFGLPLDRIGSLSGLGC-OH; disulfide 16-32)	–	41.0%
CC[C@H](C)[C@@H]1NC(=O)[C@H](CCCNC(=N)N)NC(=O)[C@H](CC(=O)O)NC(=O)[C@H](CC(C)C)NC(=O)[C@@H]2CCCN2C(=O)[C@H](CC(C)C)NC(=O)CNC(=O)[C@H](Cc2ccccc2)NC(=O)[C@@H](NC(=O)CNC(=O)[C@H](CCCCN)NC(=O)[C@H](CO)NC(=O)[C@H](CC(C)C)NC(=O)CNC(=O)[C@H](CCCCN)NC(=O)[C@H](CCCCN)NC(=O)[C@H](CCC(N)=O)NC(=O)[C@H](C)NC(=O)CNC(=O)[C@H](Cc2c[nH]cn2)NC(=O)[C@H](CCC(=O)O)NC(=O)COCCOCCNC(=O)COCCOCCNC(=O)COCCOCCNC(=O)CC[C@H](NC(=O)CCCCCCCCCCCCCCCCC(=O)O)C(=O)O)CSSC[C@@H](C(=O)O)NC(=O)CNC(=O)[C@H](CC(C)C)NC(=O)CNC(=O)[C@H](CO)NC(=O)[C@H](CC(C)C)NC(=O)[C@H](CO)NC(=O)CNC1=O [compound 1353] ({C18 diacid-γGlu-AEEA-AEEA-AEEA}-EHGAQKKGLSKGCFGLPLDRIGSLSGLGC-OH; disulfide 13-29; C-terminus assumed)	–	9.0%
